Test results: patent publication US20110144079A1, “ANTIMICROBIAL SYSTEM” (priority 2008, published 2011)
Where two headings read alike, the source gives them in different places. Marks after values point to notes of the source that are not given here.

Tests used:
MRSA [1] = experiment: Broth microdilution MIC/MBC; assay type: cell-based, methicillin-resistant S. aureus; conditions: Staphylococcus aureus; for MBC: 99.9% killing; for MIC: 24 h at 37° C.
Method: (§1) Broth microdilution tests were performed according to NCCLS guidelines. Serial two-fold dilutions of each imidazolium salt (from an original working solution which had been 0.22 μm sterile filtered) in Mueller-Hinton Broth (MHB) (100 μl) were prepared in 96-well micro-titre plates over the range 0.0000625-1% w/v. The inoculum to be tested was prepared by adjusting the turbidity of an actively overnight growing broth culture in MHB to an optical density at 550 nm equivalent to 1×10^8 CFU/ml. The suspension was further diluted to provide a final inoculum density of 2×10^5 CFU/ml in MHB as verified by total viable count. The inoculum to be tested (100 μl, 2×10^5 CFU ml^−1) was added to each well of the microdilution trays which were incubated aerobically for 24 h at 37° C. Positive and negative growth controls were included in every assay (6 replicates). After determining the MICs, minimum bactericidal concentrations (MBCs) were determined by spreading 20 μl of suspension from wells showing no growth onto MHA plates, which were then incubated for 24 h and examined for 99.9% killing.

E. coli PIII [2] = experiment: Biofilm assay (Calgary Biofilm Device), MBEC; assay type: cell-based; conditions: for MBEC: E. coli PIII 24 h biofilm, 24 h challenge; for percent weight to volume of ionic liquid that corresponds to the MBEC value: E. coli PIII biofilm
Method: (§2) Biofilms of each test organism were grown in the Calgary Biofilm Device (commercially available as the MBEC Assay™ for Physiology & Genetics, Innovotech Inc., Edmonton, Alberta, Canada). The device, a micro-titre plated based assay, consists of two parts; a microtitre plate containing the inoculated test medium and a polystyrene lid with 96 identical pegs on which the microbial biofilm forms under gyrorotary incubation. The biofilm assay was conducted according to the MBEC™ assay protocol as supplied by the manufacturer, with slight modifications. Inocula of each test organism were prepared in MHB as described above and adjusted to provide a final inoculum density of ˜10^7 CFU ml^−1 (as confirmed by viable count). 150 μl of the inoculated media was transferred to each well of the 96-well microtitre plate and the assay plate lid, bearing 96 pegs was placed into the microtitre plate. The MBEC assay plates were placed in a gyrorotary incubator (37° C., 95% relative humidity) for 24 h to permit growth and comparison of 24 h biofilms of each test strain. Positive and negative growth controls were included in each plate (6 replicates). Initial and 24 h planktonic viable counts were measured, as were 24 h biofilm counts, expressed as CFU peg^−1, according to manufacturers instructions. After 24 h, the peg lid of the MBEC assay plate was gently rinsed three times. After rinsing, the peg lid of the MBEC assay was transferred to a ‘challenge’ plate. Serial dilutions of each imidazolium salt were prepared in 200 μl of MHB containing various concentrations of IL in each well. Positive growth control and sterility control were included in each assay plate. […] Biofilms were dislodged into recovery media by sonication for 5 minutes and the peg lid discarded. The recovery plate is incubated overnight and visually checked after 24 h for turbidity. In addition, optical density measurements for each plate were recorded at 550 nm. Clear wells were taken as evidence of biofilm eradication and the MBEC value was assigned as the lowest concentration at which no growth was observed after 24 h incubation. Plates were incubated for a further 24 h to confirm biofilm eradication concentrations.

C. tropicalis NCTC 7393 [3] = experiment: Biofilm assay (Calgary Biofilm Device), MBEC; assay type: cell-based; conditions: C. tropicalis NCTC 7393 24 h biofilm, 24 h challenge
Method: as §2

MRSA [4] = experiment: Zone of inhibition on MRSA-seeded agar culture plates; assay type: cell-based, methicillin-resistant S. aureus; conditions: 40 μL of ionic liquid applied to MRSA-seeded agar culture plates
Text: As used herein, CyMIMCI, refers to 1-alkyl-3-methyl-imidazolium chloride ionic liquids, wherein the alkyl group is a straight chain alkyl group having y carbon atoms.

B. cenocepacia J2315 = experiment: Broth microdilution MIC/MBC; assay type: cell-based; conditions: Burkholderia cenocepacia; for MBC: B. cenocepacia J2315, 99.9% killing; for MIC: B. cenocepacia J2315, 24 h at 37° C.
Outline: (§3)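 Sterile-filtered imidazolium salts are diluted two-fold (0.0000625–1% w/v) in MHB, challenged with 2×10^5 CFU/ml bacteria, and held aerobically at 37 °C for 24 h. Bactericidal endpoints use 24 h MHA subculture of clear wells, requiring 99.9% kill.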

E-MRSA 15 = experiment: Broth microdilution MIC/MBC; assay type: cell-based; conditions: for MBC: E-MRSA 15, 99.9% killing; for MIC: E-MRSA 15, 24 h at 37° C.
Outline: as §3

K. aerogenes NCTC 7427 = experiment: Broth microdilution MIC/MBC; assay type: cell-based; conditions: Klebsiella aerogenes, NCTC7427; for MBC: K. aerogenes NCTC 7427, 99.9% killing; for MIC: K. aerogenes NCTC 7427, 24 h at 37° C.
Outline: as §3

[5] = system: S. epidermidis ATCC 12228; experiment: Broth microdilution MIC/MBC; assay type: cell-based; conditions: Staphylococcus epidermidis, ATCC12228; for MBC: S. epidermidis ATCC 12228, 99.9% killing; for MIC: S. epidermidis ATCC 12228, 24 h at 37° C.
Outline: as §3

C. tropicalis NCTC 7393 [6] = experiment: Broth microdilution MIC/MBC; assay type: cell-based; conditions: Candida tropicalis, NCTC7393; for MBC: C. tropicalis NCTC 7393, 99.9% killing; for MIC: C. tropicalis NCTC 7393, 24 h at 37° C.
Outline: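 MIC endpoint is the lowest imidazolium salt level (range 0.0000625–1% w/v, two-fold steps in Mueller-Hinton broth) preventing growth after 24 h aerobic incubation at 37 °C with 2×10^5 CFU/ml. MBC is the lowest level giving 99.9% killing when no-growth wells are spread on MHA.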

E. coli NCTC 8196 = experiment: Broth microdilution MIC/MBC; assay type: cell-based; conditions: Escherichia coli, NCTC8196; for MBC: E. coli NCTC 8196, 99.9% killing; for MIC: E. coli NCTC 8196, 24 h at 37° C.
Outline: as §3

P. mirabilis NCTC 12442 = experiment: Broth microdilution MIC/MBC; assay type: cell-based; conditions: Proteus mirabilis, NCTC12442; for MBC: P. mirabilis NCTC 12442, 99.9% killing; for MIC: P. mirabilis NCTC 12442, 24 h at 37° C.
Outline: as §3

S. aureus ATCC 29213 = experiment: Broth microdilution MIC/MBC; assay type: cell-based; conditions: Staphylococcus aureus, ATCC29213; for MBC: S. aureus ATCC 29213, 99.9% killing; for MIC: S. aureus ATCC 29213, 24 h at 37° C.
Outline: as §3

P. aeruginosa PA01 = experiment: Broth microdilution MIC/MBC; assay type: cell-based; conditions: for MIC: P. aeruginosa PA01, 24 h at 37° C.; for MBC: P. aeruginosa PA01, 99.9% killing
Outline: as §3

[7] = system: S. epidermidis ATCC 35984; experiment: Broth microdilution MIC/MBC; assay type: cell-based; conditions: for MIC: S. epidermidis ATCC 35984, 24 h at 37° C.; for MBC: ATCC35984, S. epidermidis ATCC 35984, 99.9% killing
Outline: as §3

MRSA [8] = experiment: Biofilm assay (Calgary Biofilm Device), MBEC; assay type: cell-based, methicillin-resistant S. aureus; conditions: for MBEC: MRSA 24 h biofilm, 24 h challenge; for percent weight to volume of ionic liquid that corresponds to the MBEC value: MRSA biofilm
Method: as §2

E. coli PIII [9] = experiment: Broth microdilution MIC; assay type: cell-based; conditions: Escherichia coli
Method: as §1

[10] = Pseudomonas aeruginosa, PA01, 24 h, read-out: MIC
[11] = Staphylococcus epidermidis, ATCC35984, 24 h

| Structure (SMILES) | MBC (MRSA [1]) | MIC (MRSA [1]) | MBEC (E. coli PIII [2]) | percent weight to volume of ionic liquid that corresponds to the MBEC value (E. coli PIII [2]) | MBEC (C. tropicalis NCTC 7393 [3]) | Zone Of Inhibition Radius (MRSA [4]) | MBC (B. cenocepacia J2315) | MIC (B. cenocepacia J2315) | MBC (E-MRSA 15) | MIC (E-MRSA 15) | MBC (K. aerogenes NCTC 7427) | MIC (K. aerogenes NCTC 7427) | MBC [5] | MIC [5] | MBC (C. tropicalis NCTC 7393 [6]) | MIC (C. tropicalis NCTC 7393 [6]) | MBC (E. coli NCTC 8196) | MIC (E. coli NCTC 8196) | MBC (P. mirabilis NCTC 12442) | MIC (P. mirabilis NCTC 12442) | further results |
| --- | --- | --- | --- | --- | --- | --- | --- | --- | --- | --- | --- | --- | --- | --- | --- | --- | --- | --- | --- | --- | --- |
| CCCCCCCCCCn1cc[n+](C)c1.[Cl-] [C10MIMCl, 1-decyl-3-methylimidazolium chloride] | 643 µM | 160 µM | 9659 µM | (0.25) % w/v | 19318 µM | 17 mm | 1290 µM | 1290 µM | 321 µM | 40 µM | 1290 µM | 643 µM | 644 µM | 40 µM | 321 µM | 321 µM | 1290 µM | 321 µM | 1290 µM | 1290 µM | MBC (S. aureus ATCC 29213): 643 µM; MIC (S. aureus ATCC 29213): 40 µM; MIC (P. aeruginosa PA01; listed as 1-alkyl-3-methylimidazolium chlorides 10): 2415* μM; MIC (P. aeruginosa PA01; [10]): > 1290 µM; MBC (P. aeruginosa PA01; Pseudomonas aeruginosa): > 1290 µM; MIC [7, 11]: 40 µM; MBC ([7]; Staphylococcus epidermidis): 160 µM; MBEC (MRSA [8]): 4829 µM; percent weight to volume of ionic liquid that corresponds to the MBEC value (MRSA [8]): (0.125) % w/v; MIC (E. coli PIII [9]): 321 µM |
| CCCCCCCCCCCCn1cc[n+](C)c1.[Cl-] [C12MIMCl, 1-dodecyl-3-methylimidazolium chloride] | 290 µM | 36 µM | 1089 µM | (0.031) % w/v | 8714 µM | 17 mm | 580 µM | 290 µM | 73 µM | 18 µM | 145 µM | 73 µM | 145 µM | 36 µM | 73 µM | 73 µM | 73 µM | 73 µM | 1160 µM | 580 µM | MBC (S. aureus ATCC 29213): 36 µM; MIC (S. aureus ATCC 29213): 18 µM; MIC (P. aeruginosa PA01; [10]): 580 µM; MBC (P. aeruginosa PA01; Pseudomonas aeruginosa): 1160 µM; MIC [7, 11]: 36 µM; MBC ([7]; Staphylococcus epidermidis): 73 µM; MBEC (MRSA [8]): 545 µM; percent weight to volume of ionic liquid that corresponds to the MBEC value (MRSA [8]): (0.016) % w/v; MIC (E. coli PIII [9]): 73 µM |
| CCCCCCCCCCCCCCn1cc[n+](C)c1.[Cl-] [C14MIMCl, 1-tetradecyl-3-methylimidazolium chloride] | 66 µM | 16 µM | 124 µM | (0.004 % w/v | 248 µM | 10 mm | 264 µM | 132 µM | 66 µM | 16 µM | 66 µM | 33 µM | 33 µM | 7.7 µM | 132 µM | 66 µM | 33 µM | 33 µM | 530 µM | 264 µM | MBC (S. aureus ATCC 29213): 66 µM; MIC (S. aureus ATCC 29213): 16 µM; MIC (P. aeruginosa PA01; [10]): 264 µM; MBC (P. aeruginosa PA01; Pseudomonas aeruginosa): 264 µM; MIC ([7]; listed as 1-alkyl-3-methylimidazolium chlorides 14): 7.75 µM; MIC [7, 11]: 7.7 µM; MBC ([7]; Staphylococcus epidermidis): 33 µM; MBEC (MRSA [8]): 124 µM; percent weight to volume of ionic liquid that corresponds to the MBEC value (MRSA [8]): (0.004 % w/v; MIC (E. coli PIII [9]): 33 µM |
